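Interpolation was linear, between the two tested concentrations surrounding the appropriate level; five concentrations were tested over 48 hours in 96-well plates. The concentration for full growth arrest is given as TGI.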
Legend:
Experiment in all cases: NCI anticancer screen, dose series, 48 h
[1] = test system: HOP-92 NSCLC
[2] = test system: IGROV1 ovarian
[3] = test system: UACC-257 melanoma
[4] = test system: SK-MEL-2 melanoma
[5] = test system: CAKI-1 renal
[6] = test system: NCI-H522 lung
[7] = test system: HOP-62 NSCLC
[8] = test system: T-47D breast
[9] = test system: NCI-H23 lung
[10] = test system: MDA-N
[11] = test system: NCI-H226 lung
[12] = test system: LOX IMVI melanoma
[13] = test system: U251 CNS
[14] = test system: 786-0 renal
[15] = test system: SF-268 CNS
[16] = test system: SK-MEL-5 melanoma
[17] = test system: M14 melanoma
[18] = test system: SW-620 colon
[19] = test system: NCI/ADR-RES ovarian
[20] = test system: TK-10 renal
[21] = test system: MOLT-4 leukemia
[22] = test system: OVCAR-4 ovarian
[23] = test system: SNB-75 CNS
[24] = test system: KM12 colon
[25] = test system: A549 NSCLC
[26] = test system: UACC-62 melanoma
[27] = test system: MDA-MB-435
[28] = test system: COLO 205 colon
[29] = test system: UO-31 renal
[30] = test system: HT29 colon
[31] = test system: SK-MEL-28 melanoma
[32] = test system: DU-145 prostate
[33] = test system: MALME-3M melanoma
[34] = test system: OVCAR-5 ovarian
[35] = test system: HCT-116 colon
[36] = test system: CCRF-CEM leukemia
[37] = test system: BT-549 breast
[38] = test system: RXF 393 renal
[39] = test system: HCT-15 colon
[40] = test system: HS 578T breast
[41] = test system: ACHN renal
[42] = test system: RPMI-8226 leukemia
[43] = test system: SNB-19 CNS
[44] = test system: SF-295 CNS
[45] = test system: EKVX NSCLC
[46] = test system: SN12C renal
[47] = test system: K-562 leukemia
[48] = test system: OVCAR-3 ovarian
[49] = test system: SK-OV-3 ovarian
[50] = test system: MDA-MB-231 breast
[51] = test system: OVCAR-8 ovarian
[52] = test system: A498 renal
[53] = test system: PC-3 prostate
[54] = test system: HCC-2998 colon
[55] = test system: NCI-H460 lung
[56] = test system: HL-60(TB) leukemia

Measured: TGI

Cc1ccccc1N=Nc1cc(C)c(N=Nc2c(O)ccc3ccccc23)cc1C
not listed: [54] | [55] | [56]
> 100 µM: all other assays above

COC(=O)/C=C\n1ncc(=O)[nH]c1=O
not listed: [12] | [14] | [24] | [26] | [35] | [36] | [38] | [44] | [49]
> 100 µM: all other assays above

Source: PubChem BioAssay (NCI)
